Patent US11767303B2, “Compounds and methods for inhibiting viral replication and methods of treating and preventing flaviviral infections” (priority 2020, dated 2023)
pEC50: −log10 of the molar value. Like-named read-outs stand apart in the source and are kept apart here.

How the values were obtained:
ZIKV [1] = experiment: Viral titer reduction assay, ZIKV in A549 cells; type: cell-based, Zika virus; conditions: Zika virus
Protocol: Viral Titer Reduction Assay. A viral titer reduction assay was used to determine the compounds' effect on DENV2 and ZIKV strains, as described previously. […] Human A549 lung carcinoma cells and human primary neural progenitor cells were used, as described previously. […] All experiments were performed in triplicates.

3D organoids = experiment: Toxic effect on 3D organoids; type: cell-based, human; conditions: 1.5 μM
Excerpt: Culturing of human iPSCs. Human iPSC F11350.1 culture was maintained in feed-free conditions using mTeSR1 medium (StemCell Technologies #85851) with 5× supplement (StemCell Technologies #85852). Cells were maintained on six-well plates coated with human embryonic stem cell-qualified Matrigel at a 1:60 dilution (Corning Catalog #354277) and passaged with ReLeSR (StemCell Technologies #05872). Cortical 3D organoids were generated based on the protocol described by Yoon et al. Yoon et al., “Reliability of Human Cortical Organoid Generation,” Nat. Methods. […] Briefly, iPSCs were dissociated with accutase (ThermoFisher #A1110501) and then plated at a density of 3×10^6 cells per well in AggreWell 800 24-well plate (StemCell Technologies #34811) in Essential 8™ medium (ThermoFisher #A1517001) supplemented with 10 μM rock inhibitor (Tocris #Y27632). The plate was centrifuged at 100×g for 3 min and incubated at 37° C. overnight. […]
To evaluate if JMX0207 protects organoids from ZIKV infections, a full-length infectious ZIKV clone expressing Venus fluorescent protein (ZIKV-Venus) was first generated. […] ZIKV infection was quantified by a plaque forming unit (PFU) assay at 5 dpi and by fluorescence imaging at 7 dpi, respectively.

DENV2 = experiment: Viral titer (plaque) reduction assay, DENV2 in A549 cells; type: cell-based, Dengue virus serotype 2; conditions: Dengue virus, DENV2, A549 cells
Protocol: Viral Titer Reduction Assay. A viral titer reduction assay was used to determine the compounds' effect on DENV2 and ZIKV strains, as described previously. […] Human A549 lung carcinoma cells and human primary neural progenitor cells were used, as described previously. […] 13:e1006411 (2017), which are hereby incorporated by reference in their entirety. All experiments were performed in triplicates.
A viral plaque reduction assay was performed next to evaluate the antiviral efficacy of these derivatives. Human lung carcinoma A549 cells were infected with DENV2 in the presence of a concentration series of derivatives or a dimethyl sulfoxide (DMSO) control, and viral titers were measured at 48 hrs post-infection, as described previously.

[2] = not told
A549 cells = experiment: WST-8 cell proliferation cytotoxicity assay; type: cell-based, human; conditions: A549 cells; read-out: CC50 (A549)
Protocol: (§1) Cytotoxicity Assay. […] All experiments were performed in triplicates.
(§2) To address this concern, next the compound cytotoxicity CC50 was measured using a WST-8 cell proliferation assay, as described previously.

[3] = WST-8 cell proliferation cytotoxicity assay; type: cell-based, human; conditions: human; Table 4, preliminary SAR, A549 cells; read-out: CC50
Protocol: as §1, §2

in vitro = conditions: not told, Perme. (cell permeability)
viral NS3 protease = molecular target: T1, viral NS3 protease (Dengue virus type 2, UniProt P29990); experiment: Protein thermal shift assay (PTSA); type: binding
T1 construct: made in house
T1 sequence (P29990 1476-1659): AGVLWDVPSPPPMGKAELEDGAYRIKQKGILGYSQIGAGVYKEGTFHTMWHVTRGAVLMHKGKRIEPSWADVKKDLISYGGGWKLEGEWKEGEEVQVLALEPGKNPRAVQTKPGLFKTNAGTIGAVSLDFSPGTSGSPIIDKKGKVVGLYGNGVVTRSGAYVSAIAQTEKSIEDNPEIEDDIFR
Excerpt: Li et al., “Existing Drugs as Broad-Spectrum and Potent Inhibitors for Zika Virus by Targeting NS2B-NS3 Interaction,” Cell Res. 27:1046-1064 (2017), which is hereby incorporated by reference in its entirety.

ZIKV [4] = experiment: qRT-PCR of viral RNA from ZIKV-infected A549 cells; type: cell-based, Zika virus
Protocol: Quantitative qRT-PCR. Quantitative qRT-PCR was performed as described previously. Li et al., “Existing Drugs as Broad-Spectrum and Potent Inhibitors for Zika Virus by Targeting NS2B-NS3 Interaction,” Cell Res. 27:1046-1064 (2017); Li et al., “Erythrosin B is a Potent and Broad-Spectrum Orthosteric Inhibitor of the Flavivirus NS2B-NS3 Protease,” Antiviral Res. 150:217-225 (2018), which are hereby incorporated in their entirety. ZIKV primers […] (SEQ ID NO: 12) and […] (SEQ ID NO: 13) with ZIKV probe Cy5-[…]/TAO/[…]-IAbRQSp (SEQ ID NO: 14) were used. The 2-ΔΔCT (“delta-delta Ct”) method was used to quantify samples. All experiments were performed in triplicates.

O=C(Nc1ccc([N+](=O)[O-])cc1Cl)c1cccc([N+](=O)[O-])c1O [JMX0207, N-(2-Chloro-4-nitrophenyl)-2-hydroxy-3-nitrobenzamide]
pEC50 (ZIKV [1]; A549, read-out: EC50-ZK): 6.52
pEC50 (ZIKV [1]; A549, read-out: EC50-ZK (A549)): 6.52
toxic effect on the 3D organoids (3D organoids): did not have any toxic effect
pEC50 (DENV2; 48 hrs post-infection, read-out: EC50-DN2 (A549)): 6.51
pEC50 (DENV2; Table 4, preliminary SAR, read-out: EC50-DN2): 6.44
Perme. (cell permeability) [2]: 1.3 ×10⁻⁶ cm/s
CC50 (A549 cells): 31900 nM
CC50 [3]: 33900 nM
Papp (in vitro): > 1 ×10⁻⁶ cm/s
increase in Tm of the viral protein (viral NS3 protease): 0.75 °C
ZIKV RNA copy number (ZIKV [4]): significantly reduced the ZIKV RNA copy number in a dose-dependent manner
